Assays:
[1] = Oxidation of ascorbate under approximate physiologic conditions (UV-vis, 266 nm); type: biochemical
Experimental: • Stock ascorbic acid (Sigma A 5960) (prepared fresh): 8.82 mg/(25 mL 176.1 mg/mmol)=2.00 mM • Stock GdTex: 5.72 mg/(10.0 mL water. 1148 mg/mmol)=498 μM • Stock 4× Buffer: 200 mM HEPES, pH 7.5; 400 mM NaCl The stock solutions were prepared using ACS grade water (Aldrich 32,007-2). 4× buffer was prepared using NaCl 99.999% (Aldrich 20,443-9), HEPES (Gibco-BRL 11344-025), and sodium hydroxide 99.99% (Aldrich 30,657-6), and was treated with Chelex® 100 (BioRad 143-2832) prior to use to remove trace iron contaminants. These were combined to form the reaction mixture analyzed by UV-vis spectroscopy: 400 μL 4× Buffer, 200 μL Ascorbic Acid Stock, 979.9 μL Water, 20.1 μL GdTex Stock.
In brief, a reaction mixture was prepared containing ascorbate, buffer, and water. A lesser amount of texaphyrin catalyst, eg., 0.025 molar equivalent, was added to this reaction mixture, vortexed briefly, and placed in a quartz cuvette (0.2, 0.5, 1.0, 2.0, 5.0, or 10 mm path length as needed to give ca. 1.8 absorbance reading at 266 nm). The cuvette was placed in a UV-vis spectrophotometer and the absorbance was read every 60 seconds for ten minutes. The absorbance at 266 nm plotted against time initially gaive a straight line. The slope of initial time points (eg., plotting as M concentration vs time in minutes) provided a rate which was used as a point in a saturation (Michaelis-Menton) plot. This process was repeated at various concentrations of ascorbate. A background rate of ascorbate oxidation was also measured at each concentration of ascorbate using this procedure without GdTex catalyst. The resulting background rate of oxidation was subtracted from the rate of oxidation in the presence of catalyst.
2B. […] 2C. […] 2D. By following the procedure of Example 2A, using an initial ascorbate concentration of 1.23 mM and a texaphyrin concentration of 61.5 μM, the results summarized in below in Table 1 were obtained.

[2] = test system: MES-SA human uterine cells; assay: Proliferation of MES-SA cells with ascorbate and texaphyrin (MTT); type: cell-based; settings: for cytotoxic effect of texaphyrin with 333 μM ascorbate: texaphyrin 25-100 μM, 5 hours exposure, MTT after 72 hours; for cytotoxic effect of texaphyrin at lower concentrations of ascorbate: ascorbate below 333 μM (111 μM and 62.5 μM for GdTex); for cytotoxic/inhibitory effect of texaphyrin in the absence of ascorbate: no ascorbate, texaphyrin up to 100 μM
Experimental: The proliferation of MES-SA human uterine cells (Harker, W. G.; MacKintosh, F. R.; Sikic, B. I. Cancer Res. 1983, 43, 4943-4950) grown in RPMI-1640 medium in the presence of ascorbate or complex was used to assess the formation of hydrogen peroxide under cell culture conditions.
(§1) 5A. Materials and Methods. MES-SA cells were allowed to adhere to (4) 96-well microtiter plates (4000 cells per well) overnight in 160 μL RPMI medium. Stock ascorbate 3.0 mM in medium (80 μL) was serially diluted (1:3) in rows B through F (discarding the final 80 μL). Row G was used for no-ascorbate control. Stock solutions of GdTex (2 mM in 5% mannitol) diluted in medium and 5% mannitol were prepared and added to the plates to give a final volume of 200 μL in all wells. Columns 2 and 3 contained 100 μM GdTex; columns 4 and 5 contained 75 μM GdTex, columns 6 and 7 contained 50 μM GdTex; columns 8 and 9 contained 25 μM GdTex; and columns 10 and 11 contained no GdTex (all concentrations final). Final mannitol concentration was 0.25% in all wells. The plates were incubated at 37 C under a 5% CO2/95% air atmosphere. Complex-containing medium was exchanged for fresh medium after 5 hours, and plates were incubated an additional 72 hours prior to analysis for viability using the tetrazolium dye, MTT (Mosmann, T. J. Immunol. Methods 1983, 65, 55-63). In brief, 20 μL MTT dye (Sigma Chemical, St. Louis, Mo., catalogue no. M 2128, 5 mg/mL solution in phosphate buffered saline) was added to cells in media to give a final volume of 200 μL. The plates were incubated at 37° C. for ca. 2 hours, whereupon the media was removed and isopropyl alcohol (100 μL/well) was added. Plates were vortexed for ca. 3 minutes to dissolve MTT formazan, then read on a microplate reader at 560-650 nm. Plate absorbances were normalized to wells containing neither ascorbate nor GdTex to allow plate to plate comparison. Data for each concentration of GdTex and ascorbate is the average of eight wells.
The proliferation of MES-SA human uterine cells grown in RPMI-1640 medium in the presence of ascorbate and LuTex was used to assess the production of hydrogen peroxide under cell culture conditions following the protocol outlined in the previous example.

[3] = test system: EMT-6 mouse mammary sarcoma cells; assay: Proliferation of EMT-6 cells with NADPH and texaphyrin (MTT); type: cell-based; settings: for inhibitory effect of texaphyrin with 1000 μM and 333 μM NADPH: NADPH 1000 μM and 333 μM; for inhibitory effect of texaphyrin at lower concentrations of NADPH: NADPH below 333 μM; for inhibitory effect of texaphyrin in the absence of NADPH: no NADPH
Experimental: as §1
The proliferation of EMT-6 mouse mammary sarcoma (Rockwell, S. C., et al., J. Natl. Cancer Inst. 1972, 49, 735-749) cells grown in RPMI-1640 medium in the presence of NADPH and motexafin lutetium was used to assess the production of hydrogen peroxide under cell culture conditions following the protocol outlined in the previous example.
The proliferation of EMT-6 mouse mammary sarcoma (Rockwell, S. C., et al., J. Natl. Cancer Inst. 1972, 49, 735-749) cells grown in RPMI-1640 medium in the presence of NADPH and GdTex was used to assess the production of hydrogen peroxide under cell culture conditions following the protocol outlined in the previous example.

MES-SA cells = assay: Response of MES-SA cells to ionizing radiation, microtiter plate format (MTT); type: cell-based, human
Experimental: The response of MES-SA cells to ionizing radiation was studied using the microtiter plate format to confirm radiation sensitization potential. This assay is used to assess rapidly the effects of irradiation under a variety of conditions.
10A. Materials and Methods. MES-SA cells were incubated at 37° C. and allowed to adhere to 96-well microtiter plates (1000 cells per well) overnight in 160 μL McCoys 5A containing 10% FBS (Gibco-BRL) and ca. 2% penicillin/streptomycin solution (Sigma). BSO or media (20 μL) was added, respectively to test and control wells, 24 h prior to irradiation. Metallotexaphyrin complex (up to 100 μM) was added to the test wells to give a final volume of 200 μL, 18-24 h prior to irradiation. Plates were irradiated using a 137Cs irradiator (Model 40 Gammacell, J. L. Shepherd & Assoc., San Fernando, Calif.) at a dose rate of 33.25 Rad/min. A lead brick (2″ diameter) was positioned to protect a column of wells (no. 11) from ionizing radiation. Plate absorbances were normalized to shielded wells to allow plate-to-plate comparison. […] Reversing the position of texaphyrin complex-containing wells had no effect on assay outcome. Medium was exchanged immediately after irradiation, and plates were incubated an additional 120 h prior to analysis for viability using the MTT assay (as described, e.g., in Example 5).

| Structure (SMILES) | kcat (first-order rate constant for the catalyst), ascorbate oxidation ([1]; substrate ascorbate, pH 7.5, background subtracted) [s⁻¹] | Km ([1]; substrate ascorbate, pH 7.5, background subtracted, read-out: KM (dissociation or Michaelis constant), ascorbate oxidation) [µM] | cytotoxic effect of texaphyrin with 333 μM ascorbate [2] | cytotoxic effect of texaphyrin at lower concentrations of ascorbate [2] | cytotoxic/inhibitory effect of texaphyrin in the absence of ascorbate [2] | inhibitory effect of texaphyrin with 1000 μM and 333 μM NADPH [3] | inhibitory effect of texaphyrin at lower concentrations of NADPH [3] | inhibitory effect of texaphyrin in the absence of NADPH [3] | radiation sensitization (MES-SA cells; 100 μM GdTex, no BSO (FIG. 17A)) | effect on apparent viability after irradiation with BSO (MES-SA cells; all cells pre-incubated with 100 μM BSO (FIG. 17B)) | effect on apparent viability after irradiation (MES-SA cells; up to 50 μM GdTex for 24 h prior to irradiation, no BSO, adjusted for GdTex alone (FIG. 17A)) | ascorbate oxidation (in words) ([1]; procedure of Example 2A, compared with motexafin gadolinium) | radiation sensitization, texaphyrin substituted for GdTex (MES-SA cells; corresponding experiments, Example 10B) |
| --- | --- | --- | --- | --- | --- | --- | --- | --- | --- | --- | --- | --- | --- |
| CC(=O)[O-].CC(=O)[O-].CCc1c(CC)c2cc3nc(cnc4cc(OCCOCCOCCOC)c(OCCOCCOCCOC)cc4ncc4nc(cc1[n-]2)C(CCCO)=C4C)C(C)=C3CCCO.O.[Gd+3] [GdTex, motexafin gadolinium] | 0.00583 | 1060 | complete cytotoxicity | dose-response was observed | no cytotoxic effect | dose-response was observed | No inhibitory effect | no inhibitory effect | Radiation sensitization became more significant | greater GdTex-dependent decrease in apparent viability | small effect on apparent viability | – | – |
| CC(=O)[O-].CC(=O)[O-].CCc1c(CC)c2cc3nc(cnc4cc(OCCOCCOCCOC)c(OCCOCCOCCOC)cc4ncc4nc(cc1[n-]2)C(CCCO)=C4C)C(C)=C3CCCO.O.[Lu+3] [LuTex, motexafin lutetium] | – | – | dose-response was observed | No inhibitory effect | no inhibitory effect | dose-response was observed | No inhibitory effect | no inhibitory effect | – | – | – | to a lesser extent than in the presence of motexafin gadolinium | sensitization was not obtained |

From patent publication US7579338B2, “Methods and compositions for treating atheroma, tumors and other neoplastic tissues” (Pharmacyclics, Inc., priority 1999, dated 2009)
